Experimental data published in US20210134398A1, “Combinatorial Chemistry Computational System and Enhanced Selection Method” (Southern Methodist University, priority 2019, published 2021).
Entries after “also recorded” stand apart in the source; their conditions may differ. Where two headings read alike, the source gives them in different places.

Legend:
[1] = tested on: P-gp overexpressing prostate cancer cell line, DU145TXR; test: MTT cell viability assay, resensitization to paclitaxel; format: cell-based, human; settings: for Fold vs PTX + 29: vs paclitaxel + parental compound 29; for Fold vs PTX (fold increased sensitivity): vs paclitaxel alone; for Resensitization of DU145TXR to paclitaxel / MDR reversal (in words): 3 to 10 μM inhibitor
Description: The Group 1 ChemGen/docking routine produced variants of P-gp inhibitor 29 resensitize a multidrug resistant, P-gp overexpressing prostate cancer cell line to paclitaxel. The mitochondrial reduction potential of cells is often used as an indicator for cell viability using MTT assays^4. Using these assays it was observed that the five Group 1 derivatives of 29 predicted through the ChemGen/docking routine and synthesized here, 216, 227, 231, 541 and 551, re-sensitized the P-gp overexpressing prostate cancer cell line, DU145TXR^33, to the chemotherapeutic, paclitaxel (FIG. 12, showing results of assays at concentrations of 3 μM, 5 μM, 7 μM, and 10 μM).
Cytotoxicity of the chemotherapeutic, paclitaxel (PTX) to P-gp overexpressing prostate cancer cells, DU145TXR, was determined in the absence and presence of the ChemGen designed 29-variants, 216, 227, 231, 541 and 551. For each experimental compound IC50 values of PTX alone or in the presence of inhibitors, fold improvement of PTX sensitivity in the presence of inhibitor, and fold improvement of PTX sensitivity by variants compared to parental compound 29 are given.
Effects of Group 2 variants on the paclitaxel sensitivity of P-glycoprotein overexpressing prostate cancer cells, DU145TXR. MTT assays were again used to assess the efficacy of the new structural 29-variants on sensitizing the chemotherapy-resistant prostate cancer cell line, DU145TXR, to paclitaxel, at concentrations of 3 μM, 5 μM, 7 μM, and 10 μM as shown in FIG. 15 and Table 4.
MTT cell viability assay. Cells were trypsinized from monolayers and seeded with 3000 cells in 150 μL of complete medium in a 96 well plate. After 24 hours, cells were treated for 48 hours with paclitaxel (Acros Organics, NJ) and/or P-gp inhibitory compounds dissolved in DMSO, or DMSO controls. All additions were diluted into complete medium. After 48 hours of treatment, MTT assays were performed as described^41 using 5 mg/mL of MTT (Acros Organics, NJ) solution prepared in PBS (137 mM NaCl, 2.7 mM KCl, 10 mM Na2HPO4, 1.8 mM KH2PO4, pH 7.4). After 4 hours of incubation with MTT, the media was removed and the formazan crystals were dissolved in 100 μL of DMSO. The absorbance at 570 nm was then measured using a BioTek Cytation 5 imaging multi-mode reader (Bio-Tek, Winooski, Vt.). Percent viability was calculated using DMSO treated cells as representative for 100% viability, according to Equation 1. Background absorbance was determined using MTT and complete medium without cells and subtracted from all the test values. Equation 1:
The results were plotted as the mean with standard deviation (SD) of eight replicates per concentration from at least two independent experiments with n=8. The graphical representations and IC50 values were determined using four parameter variable slope non-linear regression, using the following equation: Y=bottom+(top-bottom)/(1+10^((log IC50−X)*Hill Slope) (GraphPad Prism™, La Jolla Calif., USA, Version 6.05). The reported “fold sensitization” was calculated as follows, per Equation 2: […]

[2] = molecular target: T1, Cysteineless Mouse MDR3 P-glycoprotein (Mus musculus, UniProt P21447, C1070A/C1121A/C1223A/C133A/C427A/C638A/C669A/C713A/C952A); test: ATPase activity assay (basal and verapamil-stimulated), purified P-gp in mixed micelles; format: biochemical; settings: for Effect on stimulated ATPase / Stimulated ATPase: in the presence of verapamil; for Stimulated ATPase / Basal ATPase: ± standard deviation; for Effect on basal ATPase / Basal ATPase: no added transport substrate
T1 construct: made in house; host or cells: Pichia pastoris
T1 sequence (P21447 whole entry C133A/C427A/C638A/C669A/C713A/C952A/C1070A/C1121A/C1223A): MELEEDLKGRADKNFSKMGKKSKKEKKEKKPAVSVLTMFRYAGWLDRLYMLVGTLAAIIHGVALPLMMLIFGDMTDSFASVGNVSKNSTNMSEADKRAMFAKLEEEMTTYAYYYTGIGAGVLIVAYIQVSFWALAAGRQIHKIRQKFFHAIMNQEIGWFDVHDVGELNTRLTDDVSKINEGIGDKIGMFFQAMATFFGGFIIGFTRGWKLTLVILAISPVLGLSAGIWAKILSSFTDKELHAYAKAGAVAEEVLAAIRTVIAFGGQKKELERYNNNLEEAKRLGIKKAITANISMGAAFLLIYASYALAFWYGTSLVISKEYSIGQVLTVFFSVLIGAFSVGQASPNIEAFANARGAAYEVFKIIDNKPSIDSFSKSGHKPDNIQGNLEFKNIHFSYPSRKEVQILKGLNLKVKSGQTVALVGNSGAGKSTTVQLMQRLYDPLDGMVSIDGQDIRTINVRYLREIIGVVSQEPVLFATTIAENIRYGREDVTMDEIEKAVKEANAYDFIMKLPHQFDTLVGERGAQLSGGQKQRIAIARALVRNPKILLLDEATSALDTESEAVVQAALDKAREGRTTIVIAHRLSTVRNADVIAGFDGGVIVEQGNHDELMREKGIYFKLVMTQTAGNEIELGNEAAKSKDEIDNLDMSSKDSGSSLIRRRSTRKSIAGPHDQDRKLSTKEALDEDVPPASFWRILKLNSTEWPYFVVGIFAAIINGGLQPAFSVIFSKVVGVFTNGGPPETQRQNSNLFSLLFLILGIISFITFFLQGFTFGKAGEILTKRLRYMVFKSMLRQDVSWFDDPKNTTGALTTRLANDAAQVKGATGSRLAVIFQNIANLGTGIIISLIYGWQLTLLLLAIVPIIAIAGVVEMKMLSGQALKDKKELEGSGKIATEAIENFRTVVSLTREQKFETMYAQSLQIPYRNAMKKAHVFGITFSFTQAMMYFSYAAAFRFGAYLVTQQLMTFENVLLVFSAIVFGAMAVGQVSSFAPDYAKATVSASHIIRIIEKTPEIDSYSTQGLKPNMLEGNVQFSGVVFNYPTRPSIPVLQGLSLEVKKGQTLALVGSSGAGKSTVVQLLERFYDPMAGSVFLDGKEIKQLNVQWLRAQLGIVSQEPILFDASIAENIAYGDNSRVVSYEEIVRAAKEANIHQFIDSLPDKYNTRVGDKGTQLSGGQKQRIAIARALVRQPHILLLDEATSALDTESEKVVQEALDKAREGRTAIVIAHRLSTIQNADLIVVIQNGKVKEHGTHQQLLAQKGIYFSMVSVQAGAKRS
Procedure: Evaluation of mode of inhibition of P-glycoprotein by Group 1 and Group 2 variants of compound 29. To assess the mode of inhibition of P-gp by the novel variants of P-gp inhibitor 29, ATP hydrolysis by P-gp was evaluated in the presence or absence of the variants. […] Murine P-gp (MDR3) expressed in Pichia pastoris that had all naturally occurring cysteines replaced with alanine, was used^45, 46. It is widely assumed that the ATP hydrolytic rate of P-gp is stimulated in the presence of transport substrates when compared to ATP hydrolysis in the absence of transport substrates. Assays comparing these rates can therefore be useful not only in identifying inhibitors of P-gp catalyzed ATP hydrolysis, but also to potentially infer whether a compound might be a transport substrate if basal ATPase rates are stimulated by the addition of a compound.
P-glycoprotein Purification. Cysteine-less MDR3 and the human normal MDR1 P-glycoprotein was recombinantly expressed in the yeast Pichia pastoris essentially as in^45, 46 and used for assaying ATP hydrolysis and ATP binding to the protein in the presence of the 29-variants. Purification of the protein was performed as described^49 with small modifications resulting in highly enriched P-gp in mixed micelles containing dodecyl maltoside (DDM) and lysophosphatidyl choline^26.
ATPase Activity Assays. ATP hydrolysis activity was measured using a coupled enzyme assay^72 as modified in reference^26.

[3] = molecular target: P-gp (P-gp over-expressing cell line, DU145TXR) (Homo sapiens, UniProt P08183); test: Cellular accumulation of experimental compounds by LC-MS/MS with and without tariquidar; settings: for Transport substrate for P-gp: not told
Chain of P-gp (P-gp over-expressing cell line, DU145TXR) (P08183 whole entry): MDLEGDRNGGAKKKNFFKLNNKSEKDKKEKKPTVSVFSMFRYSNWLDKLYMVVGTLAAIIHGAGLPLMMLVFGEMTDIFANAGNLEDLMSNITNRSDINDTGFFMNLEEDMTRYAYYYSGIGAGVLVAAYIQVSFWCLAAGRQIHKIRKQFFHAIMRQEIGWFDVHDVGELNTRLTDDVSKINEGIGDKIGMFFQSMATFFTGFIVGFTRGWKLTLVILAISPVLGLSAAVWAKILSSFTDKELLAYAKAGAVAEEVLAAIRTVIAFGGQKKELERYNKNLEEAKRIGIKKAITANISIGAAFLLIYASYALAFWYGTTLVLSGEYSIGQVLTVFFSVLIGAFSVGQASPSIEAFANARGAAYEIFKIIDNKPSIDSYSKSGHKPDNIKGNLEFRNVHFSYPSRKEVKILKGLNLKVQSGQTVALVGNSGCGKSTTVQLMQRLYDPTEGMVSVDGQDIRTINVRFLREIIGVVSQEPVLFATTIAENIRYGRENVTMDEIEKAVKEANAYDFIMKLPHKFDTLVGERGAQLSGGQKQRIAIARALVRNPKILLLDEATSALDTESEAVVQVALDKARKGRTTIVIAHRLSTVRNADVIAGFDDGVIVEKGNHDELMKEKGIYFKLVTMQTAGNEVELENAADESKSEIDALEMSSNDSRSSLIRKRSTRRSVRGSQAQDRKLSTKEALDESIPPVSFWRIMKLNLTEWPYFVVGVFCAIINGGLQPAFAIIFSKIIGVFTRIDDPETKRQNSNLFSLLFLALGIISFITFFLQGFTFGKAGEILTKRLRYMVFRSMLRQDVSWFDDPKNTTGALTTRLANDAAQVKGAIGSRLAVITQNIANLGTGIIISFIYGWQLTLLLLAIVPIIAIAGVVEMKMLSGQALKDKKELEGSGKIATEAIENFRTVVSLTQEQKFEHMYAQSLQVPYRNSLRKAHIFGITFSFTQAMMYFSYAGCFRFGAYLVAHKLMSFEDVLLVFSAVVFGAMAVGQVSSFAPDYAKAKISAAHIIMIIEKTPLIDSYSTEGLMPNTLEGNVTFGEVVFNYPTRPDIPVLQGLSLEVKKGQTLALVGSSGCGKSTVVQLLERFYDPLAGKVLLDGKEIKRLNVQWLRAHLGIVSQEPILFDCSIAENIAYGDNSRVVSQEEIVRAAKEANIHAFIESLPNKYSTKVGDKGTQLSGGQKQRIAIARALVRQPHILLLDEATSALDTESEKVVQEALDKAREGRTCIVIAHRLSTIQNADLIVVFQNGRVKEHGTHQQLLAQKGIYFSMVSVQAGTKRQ
Procedure: Stimulation of basal ATPase by 29-variants was used as an indicator that a compound may be a P-gp transport substrate. Effects on stimulated P-gp ATPase activity indicated whether a compound directly interfered with ATP usage by the protein (***, p<0.001; **, p<0.01; *, p<0.1; NS, not significant). Quantitative cellular accumulation of 29-variants was performed using LC-MS/MS and is presented as a ratio of the cellular amounts of 29-variants in the presence of P-gp inhibitor, tariquidar, divided by amounts accumulated in its absence. […] Binding of an ATP analog, SL-ATP, to P-gp was used to determine whether ATP binding to P-gp was affected by the 29-variants. Values +/−standard deviations are shown for at least three different P-gp preparations and three independent SL-ATP titration experiments. The values for SL-ATP binding in the presence of 29 were taken directly from Brewer et al. (2014).
Intracellular accumulation of compound 29 variants. Cell accumulation assays for each of the 29 variants were performed as in reference^28 to more directly assess whether the compounds were indeed transport substrates for P-gp.
Cellular Accumulation Assays for Experimental P-gp Inhibitors. Cells used (DU145TXR), cell culturing, cell exposure to compounds, cellular handling and extractions were performed as described in^28. LC-MS/MS methods were performed as described in^71 and as modified in^28.

Row | Stimulated ATPase [2] | Basal ATPase [2] | Cellular accumulation: ratio of plus Tariquidar over no Tariquidar [3] | Compound | Fold vs PTX + 29 ([1]; 5 μM inhibitor) | Fold vs PTX (fold increased sensitivity) ([1]; 5 μM inhibitor) | Fold vs PTX + 29 ([1]; 7 μM inhibitor) | Fold vs PTX (fold increased sensitivity) ([1]; 7 μM inhibitor) | Fold vs PTX + 29 ([1]; 10 μM inhibitor) | Fold vs PTX (fold increased sensitivity) ([1]; 10 μM inhibitor) | Fold vs PTX (fold increased sensitivity) ([1]; 3 μM inhibitor) | Cellular accumulation: ratio of plus Tariquidar over no Tariquidar ([3]; human) | other results
1 | 108 ± 2 % of DMSO | 105 ± 7 % of DMSO | 1.1 | 2-{[2-(9H-flouoren-2-yl)-2-oxoethyl]}-N-[1-phenyl-3-(2,4,5-trimethylphenyl0-1H-pyrazol-5-yl]acetamide [29-216] | 1.3 fold | 14 fold | 1 fold | 34 fold | 0.4 fold | 37 fold | – | – | Effect on stimulated ATPase ([2]; listed as 216): did not affect; also recorded: little effect; Effect on stimulated ATPase ([2]; listed as SMU29-216): none; Effect on basal ATPase ([2]; listed as 216): did not significantly affect; also recorded: did not activate; Effect on basal ATPase ([2]; listed as SMU29-216): none
2 | 50 ± 2 % of DMSO | 88 ± 4 % of DMSO | 1.0 | Cc1cc(C)c(-c2cc(NC(=O)CSCC(=O)N3c4ccccc4CCc4ccccc43)n(-c3ccccc3)n2)cc1C [29-227, 2-[(2-{2-azatricyclo[9.4.0.0]pentadeca-1(11),3(8},4,6,12,14-hexaen-2-yl)-2-oxoethyl)sulfanyl]-N-[1-phenyl-3-(2,4,5-trimethylphenyl)-1H-pyrazol-5-yl]acetamide] | 3.7 fold | 41 fold | 10 fold | 353 fold | 5 fold | 530 fold | 13 fold | – | Fold vs PTX + 29 ([1]; 3 μM inhibitor, listed as 227): 3.8 fold; Resensitization of DU145TXR to paclitaxel / MDR reversal (in words) ([1]; listed as 227): re-sensitized; also recorded: more effective than 29 at all concentrations tested; Effect on stimulated ATPase ([2]; listed as 227): inhibited activity similar to parental compound 29; also recorded: inhibited verapamil-stimulated ATPase activity; Effect on stimulated ATPase ([2]; listed as SMU29-227): inhibitor; Effect on basal ATPase ([2]; listed as 227): did not significantly affect; also recorded: did not activate; Effect on basal ATPase ([2]; listed as SMU29-227): none
3 | 141 ± 18 % of DMSO | 70 ± 0 % of DMSO | – | Cc1cc(C)c(-c2cc(NC(=O)CSCC(=O)Nc3ccc4ccccc4c3)n(-c3ccccc3)n2)cc1C [29-231, 2-({[(naphthalen-2-yl)carbamoyl]methyl}sulfanyl)-N-[1-phenyl-3-(2,4,5-trimethylphenyl)-1H-pyrazol-5-yl]acetamide] | 4.2 fold | 46 fold | 8.4 fold | 303 fold | 11 fold | 1060 fold | 14 fold | 0.9 | Fold vs PTX + 29 ([1]; 3 μM inhibitor, listed as 231): 4.1 fold; Resensitization of DU145TXR to paclitaxel / MDR reversal (in words) ([1]; listed as 231): re-sensitized; also recorded: more effective than 29 at all concentrations tested; Effect on stimulated ATPase ([2]; listed as 231): slightly stimulated; Effect on stimulated ATPase ([2]; listed as SMU26-231): stimulator; Effect on basal ATPase ([2]; listed as SMU26-231): inhibitor; Intracellular accumulation in absence vs presence of tariquidar (in words) [3]: no significant cellular accumulation; Transport substrate for P-gp ([3]; human): none of the Group 1 compounds functions as a transport substrate of P-gp; Transport substrate for P-gp [3]: no

Row | Compound | Stimulated ATPase [2] | Basal ATPase [2] | Cellular accumulation: ratio of plus Tariquidar over no Tariquidar [3] | Fold vs PTX + 29 ([1]; 5 μM inhibitor) | Fold vs PTX (fold increased sensitivity) ([1]; 5 μM inhibitor) | Fold vs PTX + 29 ([1]; 7 μM inhibitor) | Fold vs PTX (fold increased sensitivity) ([1]; 7 μM inhibitor) | Fold vs PTX + 29 ([1]; 10 μM inhibitor) | Fold vs PTX (fold increased sensitivity) ([1]; 10 μM inhibitor) | Fold vs PTX (fold increased sensitivity) ([1]; 3 μM inhibitor) | Cellular accumulation: ratio of plus Tariquidar over no Tariquidar ([3]; human) | other results
4 | Cc1cc(C)c(-c2cc(NC(=O)CSCC(=O)NC(c3ccccc3)c3ccccc3)n(-c3ccccc3)n2)cc1C [29-280, N-(diphenylmethyl)-2-[({[1-phenyl-3-(2,4,5-trimethylphenyl)-1H-pyrazol-5-yl]carbamoyl)methyl}sulfanyl]acetamide] | 116 ± 4 % of DMSO | 148 ± 4 % of DMSO | – | – | – | – | – | – | – | – | 1.2 | Effect on stimulated ATPase ([2]; listed as 280): only a slight stimulation; Effect on stimulated ATPase ([2]; listed as SMU29-280): stimulator; Effect on basal ATPase ([2]; listed as SMU29-280): stimulator
